Reference: US20090263317A1, “METHOD OF SCREENING THE ACTIVITY OF THE SMOOTHENED RECEPTOR TO IDENTIFY THERAPUTIC MODULATION AGENTS OR DIAGNOSE DISEASE” (priority 2005, published 2009)

Target: T1, Smo (Homo sapiens, UniProt Q99835)
T1 construct: expressed in transfected cells; host or cells: HEK293
Assay: Membrane recruitment (translocation) of βarr2-GFP, confocal imaging
Assay type: cell-based
Description: Localization of beta-arrestin2 green fluorescent protein (βarr2-GFP) to the plasma membrane in cells overexpressing Smo seen in FIG. 1: Confocal images of βarr2-GFP expressed alone (A) or with Myc-Smo (B) in Human embryonic kidney (HEK)293 cells. (C) Effects of Ptc, ShhN, and G protein coupled receptor kinase (GRK2) on recruitment of βarr2-GFP to the plasma membrane. βarr2-GFP was expressed with Myc-Smo (bar 1), Myc-Smo and FLAG-Ptc (bar 2), Myc-Smo and FLAG-Ptc (co-cultured with HEK293 expressing Sonic hedgehog (Shh)N-terminus, an active form of Shh (bar 3), or Myc-Smo and GRK2 (bar 4) in HEK293 cells. Data are presented as the percentage of βarr2-GFP-13 expressing cells with recruitment of βarr2-GFP and are the means±SEM of three independent experiments. *P<0.05 (compared with bar 1) and **P<0.005 (compared with bar 2) (unpaired t test).
Confocal images of βarr2-GFP expressed with FLAG-Ptc (A), FLAG-Ptc and Myc-Smo (B), and Myc-Smo (C and D) in HEK293 cells. Cells were left untreated (A to C) or treated with 8 μM cyclopamine (D) at 37° C. for 5 min. […] (F and G) Confocal images of cells stimulated with 0.3 μM SAG at 37° C. for 0 min (F) and 30 min (G). HEK293 cells were transfected with βarr2-GFP, FLAG-Ptc, Myc-Smo, and GRK2.

T1 sequence (Q99835 28-787): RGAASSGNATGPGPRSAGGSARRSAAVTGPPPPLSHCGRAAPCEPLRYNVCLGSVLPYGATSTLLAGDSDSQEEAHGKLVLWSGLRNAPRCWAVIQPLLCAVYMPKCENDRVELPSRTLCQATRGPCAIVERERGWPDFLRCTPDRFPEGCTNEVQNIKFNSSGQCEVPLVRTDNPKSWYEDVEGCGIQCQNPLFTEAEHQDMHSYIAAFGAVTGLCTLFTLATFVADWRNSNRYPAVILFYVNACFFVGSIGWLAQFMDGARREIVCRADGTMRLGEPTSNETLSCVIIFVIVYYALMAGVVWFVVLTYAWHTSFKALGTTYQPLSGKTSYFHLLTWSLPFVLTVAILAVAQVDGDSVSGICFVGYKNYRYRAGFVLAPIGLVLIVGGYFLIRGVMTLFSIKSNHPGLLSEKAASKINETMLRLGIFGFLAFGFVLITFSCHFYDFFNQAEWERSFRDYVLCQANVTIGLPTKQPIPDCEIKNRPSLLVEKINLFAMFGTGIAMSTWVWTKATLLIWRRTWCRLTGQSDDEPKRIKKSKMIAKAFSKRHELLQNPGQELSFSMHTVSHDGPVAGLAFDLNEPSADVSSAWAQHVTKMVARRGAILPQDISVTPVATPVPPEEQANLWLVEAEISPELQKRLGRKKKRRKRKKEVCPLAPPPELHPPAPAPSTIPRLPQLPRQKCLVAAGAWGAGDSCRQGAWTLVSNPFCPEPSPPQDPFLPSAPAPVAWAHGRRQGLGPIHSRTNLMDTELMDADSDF

SMILES: CNC1CCC(N(Cc2cccc(-c3ccncc3)c2)C(=O)c2sc3ccccc3c2Cl)CC1 (centres unmarked) [SAG]
- Recruitment of βarr2-GFP to the plasma membrane under Ptc inhibition (HEK293 cells transfected with βarr2-GFP, FLAG-Ptc, Myc-Smo and GRK2, 0.3 μM SAG at 37° C., 30 min versus 0 min): relieves Ptc inhibition of recruitment of βarr2-GFP to the plasma membrane

SMILES: CC1=C2C[C@H]3[C@@H](CC=C4C[C@@H](O)CC[C@@]43C)[C@@H]2CC[C@]12O[C@@H]1C[C@H](C)CN[C@H]1[C@H]2C [cyclopamine]
- Recruitment of βarr2-GFP to Smo (HEK293 cells expressing βarr2-GFP and Myc-Smo, 8 μM cyclopamine at 37° C. for 5 min, versus untreated): ablated
